Assay results from patent publication US20080201790A1, “Method and product for regulating cell responsiveness to external signals” (priority 1993, published 2008).

Columns and labels:
[1] = test system: Swiss 3T3 cells and REF52 cells; test: Beauvericin-induced apoptosis, anti-tubulin and propidium iodide staining; format: cell-based; settings: 50 μM, 6 hours at 37° C.
Description: A first group of transfected Swiss 3T3 cells and REF52 cells were treated with 50 μM beauvericin for 6 hours at 37° C. Beauvericin is a compound known to induce apoptosis in mammalian cells. A second group of cells were treated with a control buffer lacking beauvericin. The treated cells were then fixed in paraformaldehyde and permeabilized with saponin using protocols standard in the art. The permeabilized cells were then labelled by incubating the cells with a fluorescein-labelled anti-tubulin antibody (1:500; obtained from GIBCO, Gaithersburg, Md.) to detect cytoplasmic shrinkage or 10 μM propidium iodide (obtained from Sigma, St. Louis, Mo.) to stain DNA to detect nuclear condensation. The labelled cells were then viewed by differential fluorescent imaging using a Nikon Diaphot fluorescent microscope.

[2] = test system: MAPK; test: Thrombin stimulation of MAPK; format: cell-based
[3] = test system: Raf; test: Raf activation assay (immunoprecipitated Raf, kinase-inactive MEK-1) in NIH3T3 cells; format: cell-based
Description: (§1) Differential regulation of MEK in Rat 1a and NIH3T3 cells expressing gip2, v-src, v-ras, or v-raf led the present inventor to investigate the protein kinases that are putative regulators of MEK-1. Recently, it was shown that Raf-1 can phosphorylate and activate MEK. […] Cells were serum starved and challenged in the presence or absence of the appropriate growth factors, as described above. […] Cells were lysed by scraping in ice cold RIPA buffer (50 mM Tris, pH 7.2, 150 mM NaCl, 0.1% SDS, 0.5% sodium deoxycholate, 1.0% Triton X 100, 10 mM sodium pyrophosphate, 25 mM sodium glycerophosphate, 2 mM sodium vanadate, 2.1 μg/ml aprotinin) and were microfuged for 10 min to remove nuclei. The supernatants were normalized for protein content and precleared with protein A Sepharose prior to immunoprecipitation with rabbit antiserum to the C terminus of Raf-1 and protein A Sepharose for 2-3 h at 4° C. The beads were washed twice with ice cold RIPA and twice with PAN (10 mM Pipes, pH 7.0, 100 mM NaCl, 21 μg/ml aprotinin). A portion of the immunoprecipitate was diluted with SDS sample buffer and used for immunoblot analysis. […] Wild type recombinant MEK-1 was autophosphorylated in parallel as a marker. Reactions were terminated by the addition of 12.5 μl 5×SDS sample buffer, boiled for 5 minutes and subjected to SDS-PAGE and autoradiography.

[4] = test system: MEK; test: MEK activity in cell lysates from thrombin stimulated Rat 1a cells; format: cell-based
Source text: This Example Describes the Determination of Whether a Similar or Distinct MEK Activity is Involved in Activation of MAPK Though Gi Protein Coupled Receptors by Measuring MEK Activity in Cell Lysates from Thrombin Stimulated Rat 1a Cells

[5] = test system: Raf; test: Raf activation assay (immunoprecipitated Raf, kinase-inactive MEK-1) in Rat 1a cells; format: cell-based
Description: as §1

[6] = test system: GST-Ras^V12; test: Binding of COS cell-expressed MEKK1 proteins to GST-Ras^V12 agarose; settings: COS cell lysates, immunoblot
Source text: COS cells were transiently transfected by the DEAE-dextran protocol as generally described in Example 3. Cos cells were transfected with: (1) p-MEKK1 containing a nucleic acid molecule encoding MEKK1 as described in Lange-Carter et al. (Science 260:315-319, […]); (2) p-MEKKNH2 containing a nucleic acid molecule that encodes a 858 base pair Pvull(682)-Ncol(1541) restriction digest fragment of the amino terminus of MEKK1 ligated into pCMV5; (3) p-MEKKCOOH containing a nucleic acid molecule that encodes a 1435 base pair Ncol(1541)-Sspl(2976) restriction digest fragment that includes the entire kinase domain of MEKK1 ligated into pCMV5; (4) pCMV5 without insert; or (5) p-C4Raf containing a nucleic acid molecule that encodes the amino terminus of Raf-1 ligated into pCMV5. COS cells expressing the various MEKK1 proteins were […] COS cells expressing the various MEKK1 proteins were lysed in EB (1% Triton X-100, 10 mM Tris HCl [pH 7.4], 5 mM EDTA, 50 mM NaCl, 50 mM NaF, 0.1% bovine serum albumin, 0.2 U/ml aprotinin, 1 mM phenylmethylsulfonyl fluoride and 2 mM Na3 VO4). The lysates were separated into two equal parts for separate binding reactions. Half of the lysate was incubated with GST agarose (1.5 μg) while half of the lysate was incubated with GST-Ras^V12 agarose (1.5 μg) (purchased from UBI) for 1 hr at 4° C. […]

[7] = target: GST-Rac (Homo sapiens, UniProt P63000); test: Binding of MEKK4 to GST fusion protein on glutathione-Sepharose, Rac
Description: (§2) GST fusion proteins encoding Cdc42 or Rac loaded with either GTPγs or GDP were incubated with MEKK4 using previously described methods (Russell, M. et al. (1995) J. Biol. Chem. 270:11757-11760). The source of MEKK4 was either from a Cos cell transient transfection or a recombinant MEKK4 protein expressed in E. coli. The recombinant MEKK4 protein was truncated to express residues from 1261-1597 of the full length protein. A GST fusion protein of Ha-Ras was used as a control. The MEKK4 protein was incubated for 1 hr at 4° C. with either GST-Cdc42, GST-Rac or GST-Ras bound to glutathione-Sepharose beads. Each GST fusion protein had GTPγs or GDP bound to the Cdc42, Rac or Ras moiety of the fusion protein. Following the incubation the beads were washed extensively and the bound proteins removed in SDS-Laemmli buffer and resolved by SDS-PAGE using 10% acrylamide gels. The proteins were transferred to nitrocellulose and immunoblotted using a MEKK4 specific antibody recognizing the extreme COOH-terminus of MEKK4. […] The GDP bound forms of GST-Cdc42 and GST-Rac bound less than 10% of the MEKK4 bound in the presence of GTPγs.

[8] = target: GST-Cdc42 (Homo sapiens, UniProt P60953); test: Binding of MEKK4 to GST fusion protein on glutathione-Sepharose, Cdc42
Description: as §2

[9] = target: GST-Ras (Homo sapiens, UniProt P01112); test: Binding of MEKK4 to GST fusion protein on glutathione-Sepharose, Ras; settings: GTPγS or GDP bound form
Description: as §2

[10] = test system: MEKK1; test: Cellular localization of MEKK1 in Swiss 3T3 cells, antibody staining; format: cell-based; settings: serum starved Swiss 3T3 cells, 10 minutes
Source text: (§3) Cells were fixed and stained with an antibody specifically recognizing either MEKK1 or MEKK2. Secondary FITC-conjugated anti-rabbit IgG antibody was used for staining.

[11] = test system: Raf-B; test: Raf-B immunoprecipitate kinase assay from PC12 cells with kinase inactive MEK-1; format: cell-based; settings: EGF 30 ng/ml, serum starved PC12 cells
[12] = test system: 98 kD PC12 cell MEKK; test: MEKK immunoprecipitate kinase assay from PC12 cells with kinase inactive MEK-1; format: cell-based; settings: serum starved PC12 cells
Description: Reactions were stopped by the addition of 2×SDS sample buffer (20 μl). The samples were boiled for 3 minutes and subjected to SDS-PAGE and autoradiography. Raf-B was immunoprecipitated from the same untreated and treated PC12 cell lysates as above with an antiserum to a COOH-terminal peptide of Raf-B (Santa Cruz Biotechnology, Inc.) and assayed similarly. Raf-1 was immunoprecipitated with an antiserum to the 12 COOH-terminal amino acids of Raf-1 (Santa Cruz Biotechnology, Inc.).
Data represent the relative magnitude of the response for each timepoint as quantitated by phosphorimager analysis of radioactive gels from a typical experiment.
Expression of N^17Ras was induced in PC12 clones stably transfected with the N^17Ras gene by the addition of dexamethasone to the starvation media. […] PC12 cell clones stably transfected with the N^17Ras gene are less responsive to EGF-mediated activation of MEKK activity than are wild type PC12 cells. […] MEKK activity in immunoprecipitates or column fractions was dissociable from that of EGF-stimulated c-Raf-1 and Raf-B activities.
To determine whether the growth factor-mediated activation of 98 kD PC12 cell MEKK was inhibited by PKA, forskolin was used to elevate intracellular cAMP and activate PKA. […] Raf-B activity was also assayed from the same cell lysates to test whether its regulation differed from that of MEKK. Raf-B was immunoprecipitated from the same cell lysates as described above and assayed for its ability to phosphorylate MEK-1 as described above.

[13] = test system: MEKK2; test: Cellular localization of MEKK2 in Swiss 3T3 cells, antibody staining; format: cell-based; settings: serum starved Swiss 3T3 cells, 10 minutes
Source text: as §3

GST-Cdc42, sequence (P60953 whole entry, the tested form may be a part): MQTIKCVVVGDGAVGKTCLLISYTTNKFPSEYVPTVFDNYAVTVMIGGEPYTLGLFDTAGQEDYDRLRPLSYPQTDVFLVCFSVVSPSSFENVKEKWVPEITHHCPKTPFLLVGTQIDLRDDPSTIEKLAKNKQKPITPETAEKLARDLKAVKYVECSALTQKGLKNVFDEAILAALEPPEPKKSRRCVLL
GST-Ras, sequence (P01112 whole entry, the tested form may be a part): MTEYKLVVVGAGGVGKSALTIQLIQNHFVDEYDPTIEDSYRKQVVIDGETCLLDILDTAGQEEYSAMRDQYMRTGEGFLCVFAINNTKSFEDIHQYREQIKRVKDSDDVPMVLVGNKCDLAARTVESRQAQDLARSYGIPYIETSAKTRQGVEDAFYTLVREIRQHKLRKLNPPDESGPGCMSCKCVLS

Substance: beauvericin
- morphology characteristic of apoptosis [1]: cytoplasmic shrinkage (monitored by the anti-tubulin antibodies) and nuclear condensation

Substance: thrombin
- time of maximal stimulation of MAPK [2]: 3 min
- activation of Raf (in words) [3]: does not
- magnitude of MEK activity relative to EGF stimulation [4]: two to three-fold less
- stimulation of MEK over basal [4]: two to three-fold over basal
- activation of Raf (in words) ([5]; Rat 1a cells): did not measurably activate Raf

Substance: C4Raf: amino terminus of Raf-1 encoded by p-C4Raf [reference compound]
- binding to GST-Ras^V12 (in words) [6]: bound to GST-Ras^V12(GTPγS) agarose

Substance: MEKK4: MEK kinase 4 protein, SEQ ID No. 12 / 14
- binding to Rac in the GTPγS form ([7]; 1 hr at 4° C., immunoblot): specifically bound
- MEKK4 bound by GDP form relative to GTPγs form ([7]; GST-Rac): less than 10%
- binding to Cdc42 in the GTPγS form ([8]; 1 hr at 4° C., immunoblot): specifically bound
- MEKK4 bound by GDP form relative to GTPγs form ([8]; GST-Cdc42): less than 10%
- binding to Ras [9]: did not bind significantly

Substance: EGF: human EGF, epidermal growth factor
- cellular localization of MEKK1 [10]: induced a dramatic translocation of MEKK1 to the plasma membrane
- activation of Raf [3]: approximately 2.7 fold
- time of peak Raf-B activity [11]: 3 to 5 min
- Raf catalyzed phosphorylation of MEK-1 ([5]; Gip2 expressing Rat 1a cells): 1.8 fold
- Raf phosphorylation of recombinant MEK-1 over basal ([5]; Rat 1a cells): approximately 2.6 fold
- Raf catalyzed phosphorylation of MEK-1 ([5]; v-Src expressing Rat 1a cells): 1.4 fold
- persistence of MEKK activation ([12]; EGF 30 ng/ml): at least 30 minutes
- MEKK activity after stimulation (in words) ([12]; 5 minutes): increased MEKK activity
- cellular localization of MEKK2 [13]: did not effect the cellular localization of MEKK2
